The source made the active and inactive calls. No cut-off for these calls is given here.
Experiments:
Cholinesterase [1] = target: T1, Cholinesterase (Equus caballus, UniProt P81908); assay: Inhibition of equine serum BuChE using S-butyrylthiocholine iodide as substrate and measured for 60 secs by Ellman's method; assay type: cell-free
[2] = Drug metabolism in sodium phosphate buffer assessed as compound hydrolysis at 10XIC50 measured after 24 hrs by HPLC analysis; assay type: ADME; conditions: read-out: Drug metabolism
[3] = target: BuChE (butyrylcholinesterase) (Equus caballus, UniProt P81908); assay: (§1) Substrate activity at equine serum BuChE assessed as compound hydrolysis at 10XIC50 measured after 1 hr by HPLC analysis; assay type: ADME, cell-free; conditions: horse, equine serum butyrylcholinesterase (BuChE), read-out: Drug metabolism
BuChE (butyrylcholinesterase), sequence (P81908 whole entry): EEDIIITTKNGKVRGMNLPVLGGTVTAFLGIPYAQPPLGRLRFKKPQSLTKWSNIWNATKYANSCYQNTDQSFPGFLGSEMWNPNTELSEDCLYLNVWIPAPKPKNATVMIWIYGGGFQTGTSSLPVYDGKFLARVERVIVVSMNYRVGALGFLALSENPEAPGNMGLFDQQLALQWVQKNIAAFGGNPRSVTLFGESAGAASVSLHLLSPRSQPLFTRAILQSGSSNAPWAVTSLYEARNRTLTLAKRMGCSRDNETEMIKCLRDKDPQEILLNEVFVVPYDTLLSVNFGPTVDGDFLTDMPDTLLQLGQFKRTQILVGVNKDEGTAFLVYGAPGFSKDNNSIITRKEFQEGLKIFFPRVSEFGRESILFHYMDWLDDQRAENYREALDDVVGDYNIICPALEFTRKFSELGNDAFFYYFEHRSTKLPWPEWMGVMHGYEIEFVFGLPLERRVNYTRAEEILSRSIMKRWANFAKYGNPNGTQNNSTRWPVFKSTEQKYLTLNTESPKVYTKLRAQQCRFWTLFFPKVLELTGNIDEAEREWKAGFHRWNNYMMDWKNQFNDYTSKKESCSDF

[4] = target: Acetylcholinesterase (Electrophorus electricus) (UniProt O42275); assay: Inhibition of electric eel AChE at 50 uM using acetylthiocholine iodide as substrate and measured for 1 min by spectrophotometrc analysis relative to control
Acetylcholinesterase (Electrophorus electricus), sequence (O42275 24-633 limits assumed): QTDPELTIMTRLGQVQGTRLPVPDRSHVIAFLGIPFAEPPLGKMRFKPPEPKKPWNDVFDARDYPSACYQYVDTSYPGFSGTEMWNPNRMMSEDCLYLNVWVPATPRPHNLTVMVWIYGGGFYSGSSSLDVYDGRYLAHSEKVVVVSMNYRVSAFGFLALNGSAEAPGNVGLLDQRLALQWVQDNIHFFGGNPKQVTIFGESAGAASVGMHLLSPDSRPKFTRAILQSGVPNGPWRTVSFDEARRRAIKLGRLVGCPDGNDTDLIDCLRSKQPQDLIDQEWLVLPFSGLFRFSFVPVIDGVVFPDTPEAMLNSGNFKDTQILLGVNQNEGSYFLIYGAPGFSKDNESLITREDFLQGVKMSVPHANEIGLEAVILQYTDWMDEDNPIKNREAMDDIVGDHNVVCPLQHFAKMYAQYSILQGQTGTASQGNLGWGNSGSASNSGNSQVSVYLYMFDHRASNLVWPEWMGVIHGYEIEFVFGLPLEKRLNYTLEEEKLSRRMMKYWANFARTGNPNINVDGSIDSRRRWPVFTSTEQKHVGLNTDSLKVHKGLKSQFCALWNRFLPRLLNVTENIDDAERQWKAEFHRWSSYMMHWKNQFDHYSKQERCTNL

[5] = target: Acetylcholinesterase (Electrophorus electricus) (UniProt O42275); assay: Inhibition of electric eel AChE assessed as residual enzyme activity at 20 uM using acetylthiocholine iodide as substrate and measured for 1 min by spectrophotometrc analysis relative to control
[6] = target: Cholinesterase (Equus caballus) (UniProt P81908); assay: Inhibition of equine serum BuChE assessed as residual enzyme activity at 20 uM using S-butyrylthiocholine iodide as substrate and measured for 60 secs by spectrophotometric analysis relative to control; assay type: cell-free; conditions: time 60.0 sec
Cholinesterase (Equus caballus), sequence (P81908 whole entry): as the sequence (P81908 whole entry) above

[7] = target: Cholinesterase (Equus caballus) (UniProt P81908); assay: Inhibition of equine serum BuChE assessed as residual enzyme activity at 50 uM using S-butyrylthiocholine iodide as substrate and measured for 60 secs by spectrophotometric analysis relative to control; assay type: cell-free; conditions: time 60.0 sec
[8] = target: Cholinesterase (Equus caballus) (UniProt P81908); assay: Reversible inhibition of equine serum BuChE assessed as residual enzyme activity at IC50 using S-butyrylthiocholine iodide as substrate preincubated with enzyme for 60 mins followed by 80-fold dilution with BTC and DTNB and measured for 1 min by spectrophotometric analysis relative to control; assay type: cell-free; conditions: time 61.0 min
[9] = target: Acetylcholinesterase (Electrophorus electricus) (UniProt O42275); assay: Inhibition of electric eel AChE at 100XIC50 for BuChE using acetylthiocholine iodide as substrate and measured for 1 min by spectrophotometrc analysis
[10] = target: Acetylcholinesterase (Electrophorus electricus) (UniProt O42275); assay: Inhibition of electric eel AChE assessed as residual enzyme activity at 50 uM using acetylthiocholine iodide as substrate and measured for 1 min by spectrophotometrc analysis relative to control
[11] = target: Cholinesterase (Equus caballus) (UniProt P81908); assay: Inhibition of equine serum BuChE assessed as residual enzyme activity at 10 uM using S-butyrylthiocholine iodide as substrate and measured for 60 secs by spectrophotometric analysis relative to control; assay type: cell-free; conditions: time 60.0 sec
Trypsin (Homo sapiens) [12] = target: T2, Trypsin (Homo sapiens) (UniProt P07477+P07478+P35030); assay: Inhibition of trypsin (unknown origin) assessed as residual enzyme activity at 50 uM using 4-nitrophenyl acetate as substrate and measured for 1 min by spectrophotometric analysis relative to control; assay type: protein assay
Trypsin (Homo sapiens) [13] = target: T2, Trypsin (Homo sapiens); assay: Inhibition of trypsin (unknown origin) assessed as residual enzyme activity at 20 uM using 4-nitrophenyl acetate as substrate and measured for 1 min by spectrophotometric analysis relative to control; assay type: protein assay
[14] = target: Acetylcholinesterase (Electrophorus electricus) (UniProt O42275); assay: Inhibition of electric eel AChE assessed as residual enzyme activity at 10 uM using acetylthiocholine iodide as substrate and measured for 1 min by spectrophotometrc analysis relative to control
Trypsin (Homo sapiens) [15] = target: T2, Trypsin (Homo sapiens); assay: Inhibition of trypsin (unknown origin) at 50 uM using 4-nitrophenyl acetate as substrate and measured for 1 min by spectrophotometric analysis relative to control; assay type: protein assay
[16] = target: Acetylcholinesterase (Electrophorus electricus) (UniProt O42275); assay: Inhibition of electric eel AChE at 25XIC50 for BuChE using acetylthiocholine iodide as substrate and measured for 1 min by spectrophotometrc analysis relative to control
Cholinesterase [17] = target: T1, Cholinesterase; assay: as §1; assay type: ADME, cell-free; conditions: horse, serum, 1 h
Trypsin (Homo sapiens) [18] = target: T2, Trypsin (Homo sapiens); assay: Inhibition of trypsin (unknown origin) assessed as residual enzyme activity at 10 uM using 4-nitrophenyl acetate as substrate and measured for 1 min by spectrophotometric analysis relative to control; assay type: protein assay
[19] = target: Cholinesterase (Equus caballus) (UniProt P81908); assay: Irreversible inhibition of equine serum BuChE assessed as residual enzyme activity at IC50 using S-butyrylthiocholine iodide as substrate preincubated with enzyme for 60 mins followed by 80-fold dilution with BTC and DTNB and measured for 1 min by spectrophotometric analysis relative to control; assay type: cell-free; conditions: time 61.0 min

T1 sequence (P81908 whole entry): as above

Row | SMILES | IC50 (Cholinesterase [1]) | degraded at 24 h [2] | metabolised at 1 h [3] | Ratio [5] | Ratio [6] | Ratio [7] | Ratio [8] | inhibition [9] | Ratio [10] | Ratio [11] | Ratio (Trypsin (Homo sapiens) [12]) | Ratio (Trypsin (Homo sapiens) [13]) | Ratio [14] | inhibition (Trypsin (Homo sapiens) [15]) | Drug metabolism (Cholinesterase [17]) | Ratio (Trypsin (Homo sapiens) [18]) | other results
1 | CC(C)(C)OC(=O)NCCCC[C@H](NC(=O)OCC1c2ccccc2-c2ccccc21)C(=O)O | 41 µM | – | – | – | – | – | – | – | – | – | – | – | – | – | – | – | –
2 | C[C@H](NC(=O)OCC1c2ccccc2-c2ccccc21)C(=O)O | ≥ 200 µM | – | – | – | – | – | – | – | – | – | – | – | – | – | – | – | –
3 | C[N+](C)(C)CCOC(=O)[C@H](Cc1ccccc1)NC(=O)OCC1c2ccccc2-c2ccccc21 | 1 µM | ~20% | ~100% | – | – | – | – | – | – | – | – | – | – | – | – | – | –
4 | O=C(O)CNC(=O)OCC1c2ccccc2-c2ccccc21 | ≥ 200 µM | – | – | – | – | – | – | – | – | – | – | – | – | – | – | – | –
5 | CC(C)C[C@H](NC(=O)OCC1c2ccccc2-c2ccccc21)C(=O)OCC[N+](C)(C)C | 0.7 µM | ~20% | ~50% | – | – | – | – | – | – | – | – | – | – | – | – | – | –
6 | CC(C)(C)OC(=O)n1cc(C[C@H](NC(=O)OCC2c3ccccc3-c3ccccc32)C(=O)NCC[N+](C)(C)C)c2ccccc21.[I-] | 0.17 µM | – | – | 0.87 | 0.02 | < 0.01 | 0.99 | Active | 0.68 | 0.04 | 0.94 | 0.93 | 0.96 | < 5% | Metabolite_Notdetected | 1 | inhibition [4]: 30%; inhibition [16]: 10%
7 | CC(C)C[C@H](NC(=O)OCC1c2ccccc2-c2ccccc21)C(=O)O | 134 µM | – | – | – | – | – | – | – | – | – | – | – | – | – | – | – | –
8 | C[N+](C)(C)CCNC(=O)CNC(=O)OCC1c2ccccc2-c2ccccc21.[I-] | 3.7 µM | – | – | 0.95 | 0.21 | 0.07 | 1 | Active | 0.84 | 0.36 | 1.06 | 0.96 | 0.99 | < 5% | Metabolite_Notdetected | 0.96 | inhibition [4]: 10%
9 | O=C(N[C@@H](Cc1ccccc1)C(=O)O)OCC1c2ccccc2-c2ccccc21 | 320 µM | – | – | – | – | – | – | – | – | – | – | – | – | – | – | – | –
10 | O=S(=O)(F)Cc1ccccc1 | – | – | – | – | – | – | – | – | – | < 0.01 | – | – | < 0.01 | – | – | < 0.01 | Ratio [19]: 0.01
11 | CC(C)(C)OC(=O)n1cc(C[C@H](NC(=O)OCC2c3ccccc3-c3ccccc32)C(=O)OCC[N+](C)(C)C)c2ccccc21 | 0.4 µM | ~20% | ~25% | – | – | – | – | – | – | – | – | – | – | – | – | – | –
12 | CC(C)(C)OC(=O)NCCCC[C@H](NC(=O)OCC1c2ccccc2-c2ccccc21)C(=O)NCC[N+](C)(C)C.[I-] | 0.14 µM | – | – | 1 | 0.03 | 0.01 | 1.04 | Active | 0.81 | 0.06 | 0.97 | 0.95 | 1.01 | < 5% | Metabolite_Notdetected | 1 | inhibition [4]: 20%
13 | C[N+](C)(C)CCNC(=O)[C@H](Cc1ccccc1)NC(=O)OCC1c2ccccc2-c2ccccc21.[I-] | 0.6 µM | – | – | 0.99 | 0.03 | 0.02 | 1.01 | Active | 0.89 | 0.07 | 0.95 | 1.01 | 0.97 | < 5% | Metabolite_Notdetected | 1.01 | inhibition [4]: 10%
14 | CC(C)(C)OC(=O)NCCCC[C@H](NC(=O)OCC1c2ccccc2-c2ccccc21)C(=O)OCC[N+](C)(C)C | 0.5 µM | ~20% | ~25% | – | – | – | – | – | – | – | – | – | – | – | – | – | –
15 | CC(C)C[C@H](NC(=O)OCC1c2ccccc2-c2ccccc21)C(=O)NCC[N+](C)(C)C.[I-] | 1.8 µM | – | – | 1.01 | 0.11 | 0.03 | 1.01 | Active | 0.92 | 0.21 | 0.99 | 0.99 | 1 | < 5% | Metabolite_Notdetected | 1.05 | –
16 | C[C@H](NC(=O)OCC1c2ccccc2-c2ccccc21)C(=O)NCC[N+](C)(C)C.[I-] | 7.5 µM | – | – | 0.97 | 0.31 | 0.13 | 1.02 | Active | 0.94 | 0.44 | 0.98 | 1.04 | 1 | < 5% | Metabolite_Notdetected | 1.01 | –
17 | C[C@H](NC(=O)OCC1c2ccccc2-c2ccccc21)C(=O)OCC[N+](C)(C)C | 5.1 µM | ~20% | ~25% | – | – | – | – | – | – | – | – | – | – | – | – | – | –
18 | C[N+](C)(C)CCOC(=O)CNC(=O)OCC1c2ccccc2-c2ccccc21 | 6.7 µM | ~20% | ~100% | – | – | – | – | – | – | – | – | – | – | – | – | – | –
19 | CC(C)(C)OC(=O)n1cc(C[C@H](NC(=O)OCC2c3ccccc3-c3ccccc32)C(=O)O)c2ccccc21 | 23 µM | – | – | – | – | – | – | – | – | – | – | – | – | – | – | – | –
